In article PMC10741037, “A Peptoid-Chelator Selective to Cu^2+ That Can Extract Copper from Metallothionein-2 and Lead to the Production of ROS” (Antioxidants, 2023):

Experiment: Kinetics of ascorbate consumption assay (ROS production)
Assay type: biochemical
Conditions: MT-2 + Cu2+ + Asc; [MT-2] = 1.6 μM, [Cu2+] = 9 μM, [Asc] = 100 μM, HEPES 10 mM pH = 7.4, absorbance at 265 nm
Method: Reagents, except the peptoid and protein, were commercially available and were used as received. All the solutions were prepared in milliQ water (resistance: 18.2 MΩ) immediately before experiments. A stock solution of HEPES buffer was prepared at 500 mm, pH = 7.4, and then diluted to 10 mM. Sodium ascorbate was prepared at 5 mm each day because of the quick degradation of the ascorbate. All pH values are given with a ±0.2 pH unit error. UV/Vis kinetics and ROS kinetic experiments were recorded with a spectrophotometer Agilent Cary 60 UV/Vis spectrophotometer (Agilent Technologies, Mulgrave, Australia), a double-beam, Czerny–Turner monochromator with external stirrer of cuvette holder, in 1 cm path-length quartz cuvettes, with 800 rpm stirring. The samples were prepared from stock solutions of MT-2, TB, Cu^2+, diluted to 1.6, 10, and 9 µM, respectively, in 10 mM HEPES solution, pH = 7.4. Ascorbate was diluted to 100 µM. […]
First, we investigated whether CuTB can produce ROS by itself. In a typical experiment, 1 equiv. of TB was mixed with 0.9 equiv. of Cu^2+ in HEPES buffer (10 mM, pH = 7.4) in a quartz cuvette under aerobic conditions, and after the formation of the metallopeptoid was confirmed by the stability of its UV/Vis spectrum, sodium ascorbate (Asc) was added to the cuvette and the changes in the absorbance at 265 nm were monitored by UV/Vis (ε = 14,500 M^−1 cm^−1). […]

CuMT-2: complex of metallothionein-2 (MT-2) with 6 equiv. of Cu2+
ascorbate consumption / redox activity: redox silent
